# Reference: ChEMBL document CHEMBL1151314, “Phenylethanoid glycosides from Digitalis purpurea and Penstemon linarioides with PKCalpha-inhibitory activity” (J Nat Prod, 1998)
# pIC50: −log10 of the molar value.
# Biological target: Protein kinase C alpha type (Homo sapiens, UniProt P17252)
# Test: Inhibition of human recombinant PKCalpha
row,pIC50,Structure (SMILES)
1,3.90,COc1ccc(CCO[C@@H]2O[C@H](CO[C@@H]3O[C@@H](C)[C@H](O)[C@@H](O)[C@H]3O)[C@@H](OC(=O)/C=C/c3ccc(O)c(OC)c3)[C@H](O[C@@H]3O[C@@H](C)[C@H](O)[C@@H](O)[C@H]3O)[C@H]2O)cc1O
2,5.03,C[C@@H]1O[C@@H](O[C@@H]2[C@@H](O)[C@H](OCCc3ccc(O)c(O)c3)O[C@H](CO)[C@H]2OC(=O)/C=C/c2ccc(O)c(O)c2)[C@H](O)[C@H](O)[C@H]1O [ACETOSIDE]
3,6.22,O=C(/C=C/c1ccc(O)c(O)c1)O[C@H]1[C@H](O)[C@@H](O)[C@H](OCCc2ccc(O)c(O)c2)O[C@@H]1CO [CALCEOLARIOSIDE A]
4,5.34,O=C(/C=C/c1ccc(O)c(O)c1)OC[C@H]1O[C@@H](OCCc2ccc(O)c(O)c2)[C@H](O)[C@@H](O)[C@@H]1O [CALCEOLARIOSIDE B]
5,5.72,C[C@@H]1O[C@@H](OC[C@H]2O[C@@H](OCCc3ccc(O)c(O)c3)[C@H](O)[C@@H](O)[C@@H]2OC(=O)/C=C/c2ccc(O)c(O)c2)[C@H](O)[C@H](O)[C@H]1O [FORSYTHIASIDE]
6,4.72,COc1cc(/C=C/C(=O)O[C@H]2[C@H](O[C@@H]3O[C@@H](C)[C@H](O)[C@@H](O)[C@H]3O)[C@@H](O)[C@H](OCCc3ccc(O)c(O)c3)O[C@@H]2CO)ccc1O [LEUCOSCEPTOSIDE A]
7,4.83,O=C(/C=C/c1ccc(O)c(O)c1)OC[C@H]1O[C@@H](OCCc2ccc(O)c(O)c2)[C@H](O)[C@@H](O[C@@H]2O[C@H](CO)[C@@H](O)[C@H](O)[C@H]2O)[C@@H]1O [PLANTAINOSIDE D]
8,4.61,C[C@@H]1O[C@@H](OC[C@H]2O[C@@H](OCCc3ccc(O)c(O)c3)[C@H](O)[C@@H](O[C@@H]3O[C@@H](C)[C@H](O)[C@@H](O)[C@H]3O)[C@@H]2OC(=O)/C=C/c2ccc(O)c(O)c2)[C@H](O)[C@H](O)[C@H]1O [POLIUMOSIDE]
